Test results as given in patent publication US10669261B2, “Heteroarylhydroxypyrimidinones as agonists of the APJ receptor” (BRISTOL-MYERS SQUIBB COMPANY, priority 2015, dated 2020).

Biological target: T1, human APJ receptor (Homo sapiens, UniProt P35414)
T1 construct: expressed in transfected cells
T1 sequence (P35414 1-380): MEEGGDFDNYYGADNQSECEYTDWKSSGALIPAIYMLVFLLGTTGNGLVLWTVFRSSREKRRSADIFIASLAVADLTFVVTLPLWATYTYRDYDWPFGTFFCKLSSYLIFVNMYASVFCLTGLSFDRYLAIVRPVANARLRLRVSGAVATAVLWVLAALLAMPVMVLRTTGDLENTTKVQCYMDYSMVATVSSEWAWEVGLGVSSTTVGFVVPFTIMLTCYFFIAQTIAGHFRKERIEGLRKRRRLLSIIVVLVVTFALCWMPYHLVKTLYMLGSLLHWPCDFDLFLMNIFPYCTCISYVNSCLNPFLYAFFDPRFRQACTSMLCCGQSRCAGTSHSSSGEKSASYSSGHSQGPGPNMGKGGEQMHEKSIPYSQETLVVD
Test: Intracellular cAMP accumulation assay (APJ hcAMP, HTRF)
Assay type: cell-based
Settings: HEK293 cells stably expressing human APJ receptor; inhibition of forskolin-mediated cAMP production; stated at end of example; read-out: Human APJ cAMP Potency Range
Experimental: Intracellular cAMP Accumulation Assay
HEK293 cells stably expressing human APJ receptor were used to assess the activity of compounds. Cultured cells were detached and resuspended in the cAMP Homogeneous Time-Resolved Fluorescence (HTRF) assay buffer (Cisbio cat; #62AM4PEJ). The assay was performed in 384-well assay plates (Perkin-Elmer; cat #6008289) according to assay protocol provided by the manufacturer. Serial dilutions of a compound together with assay buffer containing […] IBMX and 2 μM forskolin were added to each well containing 5,000 cells and incubated for 30 minutes at room temperature. Subsequently, cAMP D2 reagent was added in the lysis buffer followed by the EuK antibody (Cisbio; cat #62AM4PEJ) and incubated for 60 min. The fluorescence emission ratio was measured using fluorometer. The intracellular cAMP concentrations (compound-stimulated inhibition of forskolin-mediated cAMP production) were calculated by extrapolation from a standard curve using known cAMP concentrations. The EC50 values were obtained by fitting the data to a sigmoidal concentration-response curve with variable slope. The maximal achievable inhibition of forskolin-induced cAMP levels (Ymax) for each compound was expressed as relative percentage of inhibition attained using pyroglutamated apelin-13 ((Pyr1)apelin-13) peptide, which was set to 100%.
The examples disclosed below were tested in the APJ in vitro assays described above and were found having human APJ cyclic AMP (hcAMP) activity. The EC50 value of each compound is presented at the end of the example description.
The biological activity of the exemplified compounds of this invention determined by the assay described above is shown at the end of each example.

Compared with CCCCc1nc(=O)c(-c2nnc(Cc3noc4ccccc34)o2)c(O)n1-c1c(C2CC2)cccc1C1CC1 [Example 27, 5-(5-(Benzo[d]isoxazol-3-ylmethyl)-1,3,4-oxadiazol-2-yl)-2-butyl-1-(2,6-dicyclopropylphenyl)-6-hydroxypyrimidin-4(1H)-one], CCCCc1nc(=O)c(-c2nnc(Cc3noc4ccccc34)o2)c(O)n1-c1c(C#N)cccc1C#N [Example 28, 2-(5-(5-(Benzo[d]isoxazol-3-ylmethyl)-1,3,4-oxadiazol-2-yl)-2-butyl-6-hydroxy-4-oxopyrimidin-1 (4H)-yl)isophthalonitrile] is higher in EC50: 0.01 to 10 nM for the first, 10 to 100 nM for the second.

Compared with CCCCc1nc(=O)c(-c2nnc(Cc3ccc(Cl)cc3)o2)c(O)n1-c1c(OC2CC2)cccc1OC1CC1 [Example 29, 2-butyl-5-(5-(4-chlorobenzyl)-1,3,4-oxadiazol-2-yl)-1-(2,6-dicyclopropoxyphenyl)-6-hydroxypyrimidin-4(1H)-one], COc1cccc(OC)c1-n1c(CCC2CC2)nc(=O)c(-c2nnc(Cc3noc4ccccc34)o2)c1O [Example 42, 5-(5-(benzo[d]isoxazol-3-ylmethyl)-1,3,4-oxadiazol-2-yl)-2-(2-cyclopropylethyl)-1-(2,6-dimethoxyphenyl)-6-hydroxypyrimidin-4(1H)-one] is lower in EC50: 10 to 100 nM for the first, 0.01 to 10 nM for the second. The second is the more potent here.

CCCCc1nc(O)c(-c2cnn(Cc3ccccc3)c2)c(=O)n1-c1c(OC)cccc1OC [Example 31, 5-(1-benzyl-1H-pyrazol-4-yl)-2-butyl-3-(2,6-dimethoxyphenyl)-6-hydroxypyrimidin-4(3H)-one] and CCOCc1nc(=O)c(-c2nnc(Cc3noc4ccccc34)o2)c(O)n1-c1c(OC)cccc1OC [Example 33, 5-(5-(benzo[d]isoxazol-3-ylmethyl)-1,3,4-oxadiazol-2-yl)-1-(2,6-dimethoxyphenyl)-6-hydroxy-2-(ethoxymethyl)pyrimidin-4(1H)-one] fall in the same range of EC50: 0.01 to 10 nM for the first, 0.01 to 10 nM for the second.

With [2H]C([2H])([2H])Oc1cccc(OC([2H])([2H])[2H])c1-n1c(CCCC)nc(=O)c(-c2nnc(Cc3noc4ccccc34)o2)c1O [Example 48, 5-(5-(Benzo[d]isoxazol-3-ylmethyl)-1,3,4-oxadiazol-2-yl)-2-butyl-1-(2,6-di[^2H3]methoxyphenyl)-6-hydroxypyrimidin-4(1H)-one] the EC50 was 0.01 to 10 nM.

Same assay, conditions: Table 1; HEK293 cells stably expressing human APJ receptor; read-out: hAPJ cAMP EC50 Potency range

First: CCCCc1nc(=O)c(-c2nnc(Cc3noc4ccccc34)o2)c(O)n1-c1c(OC(C)C)cccc1OC(C)C [Example 24, 5-[5-(1,2-benzoxazol-3-ylmethyl)-1,3,4-oxadiazol-2-yl]-1-[2,6-bis(propan-2-yloxy)phenyl]-2-butyl-6-hydroxy-1,4-dihydropyrimidin-4-one]
Second: COc1cccc(OC)c1-n1c(COC(C)C)nc(=O)c(-c2nnc(Cc3noc4ccccc34)o2)c1O [Example 34, 5-[5-(1,2-benzoxazol-3-ylmethyl)-1,3,4-oxadiazol-2-yl]-1-(2,6-dimethoxyphenyl)-6-hydroxy-2-[(propan-2-yloxy)methyl]-1,4-dihydropyrimidin-4-one]
The EC50 of the first is higher: 100 to 300 nM for the first, 0.01 to 10 nM for the second.

CCCCc1nc(=O)c(-c2nnc(Cc3csc(C)n3)o2)c(O)n1-c1c(OCC)cccc1OCC [Example 25, 2-butyl-1-(2,6-diethoxyphenyl)-6-hydroxy-5-{5-[(2-methyl-1,3-thiazol-4-yl)methyl]-1,3,4-oxadiazol-2-yl}-1,4-dihydropyrimidin-4-one] and CCCCc1nc(=O)c(-c2nnc(Cc3ccc(Cl)cc3)o2)c(O)n1-c1c(OCC)cccc1OCC [Example 26, 2-butyl-5-{5-[(4-chlorophenyl)methyl]-1,3,4-oxadiazol-2-yl}-1-(2,6-diethoxyphenyl)-6-hydroxy-1,4-dihydropyrimidin-4-one] fall in the same range of EC50: 0.01 to 10 nM for the first, 0.01 to 10 nM for the second.

CCCCc1nc(=O)c(-c2nnc(Cc3noc4ccccc34)o2)c(O)n1-c1c(OC2CC2)cccc1OC1CC1 [Example 30, 5-[5-(1,2-benzoxazol-3-ylmethyl)-1,3,4-oxadiazol-2-yl]-2-butyl-1-(2,6-dicyclopropoxyphenyl)-6-hydroxy-1,4-dihydropyrimidin-4-one] and CC(C)OCc1nc(=O)c(-c2nnc(Cc3noc4ccccc34)o2)c(O)n1-c1c(C2CC2)cccc1C1CC1 [Example 41, 5-[5-(1,2-benzoxazol-3-ylmethyl)-1,3,4-oxadiazol-2-yl]-1-(2,6-dicyclopropylphenyl)-6-hydroxy-2-[(propan-2-yloxy)methyl]-1,4-dihydropyrimidin-4-one] fall in the same range of EC50: 0.01 to 10 nM for the first, 0.01 to 10 nM for the second.

CCCCc1nc(O)c(-c2cnn(Cc3ccc(Cl)cc3)c2)c(=O)n1-c1c(OC)cccc1OC [Example 32, 2-butyl-5-{1-[(4-chlorophenyl)methyl]-1H-pyrazol-4-yl}-3-(2,6-dimethoxyphenyl)-6-hydroxy-3,4-dihydropyrimidin-4-one] and CCOCc1nc(=O)c(-c2nnc(Cc3ccc(Cl)cc3)o2)c(O)n1-c1c(OC)cccc1OC [Example 40, 5-{5-[(4-chlorophenyl)methyl]-1,3,4-oxadiazol-2-yl}-1-(2,6-dimethoxyphenyl)-2-(ethoxymethyl)-6-hydroxy-1,4-dihydropyrimidin-4-one] fall in the same range of EC50: 0.01 to 10 nM for the first, 0.01 to 10 nM for the second.

CCOCc1nc(=O)c(-c2nnc(Cc3noc4ccccc34)o2)c(O)n1-c1c(CC)cccc1CC [Example 35, 5-[5-(1,2-benzoxazol-3-ylmethyl)-1,3,4-oxadiazol-2-yl]-1-(2,6-diethylphenyl)-2-(ethoxymethyl)-6-hydroxy-1,4-dihydropyrimidin-4-one] and CCOCc1nc(=O)c(-c2nnc(Cc3ccc(Cl)cc3)o2)c(O)n1-c1c(CC)cccc1CC [Example 37, 5-{5-[(4-chlorophenyl)methyl]-1,3,4-oxadiazol-2-yl}-1-(2,6-diethylphenyl)-2-(ethoxymethyl)-6-hydroxy-1,4-dihydropyrimidin-4-one] fall in the same range of EC50: 0.01 to 10 nM for the first, 0.01 to 10 nM for the second.

COc1cccc(OC)c1-n1c(COC(C)C)nc(=O)c(-c2nnc(Cc3ccc(Cl)cc3)o2)c1O [Example 36, 5-{5-[(4-chlorophenyl)methyl]-1,3,4-oxadiazol-2-yl}-1-(2,6-dimethoxyphenyl)-6-hydroxy-2-[(propan-2-yloxy)methyl]-1,4-dihydropyrimidin-4-one] and COc1cccc(OC)c1-n1c(CCC2CC2)nc(=O)c(-c2nnc(Cc3ccc(Cl)cc3)o2)c1O [Example 45, 5-{5-[(4-chlorophenyl)methyl]-1,3,4-oxadiazol-2-yl}-2-(2-cyclopropylethyl)-1-(2,6-dimethoxyphenyl)-6-hydroxy-1,4-dihydropyrimidin-4-one] fall in the same range of EC50: 0.01 to 10 nM for the first, 0.01 to 10 nM for the second.

Compared with CCOCc1nc(=O)c(-c2nnc(Cc3ccc(Cl)c(F)c3)o2)c(O)n1-c1c(OC)cccc1OC [Example 38, 5-{5-[(4-chloro-3-fluorophenyl)methyl]-1,3,4-oxadiazol-2-yl}-1-(2,6-dimethoxyphenyl)-2-(ethoxymethyl)-6-hydroxy-1,4-dihydropyrimidin-4-one], CCOCc1nc(=O)c(-c2nnc(Cc3csc(-c4ccccc4)n3)o2)c(O)n1-c1c(OC)cccc1OC [Example 39, 1-(2,6-dimethoxyphenyl)-2-(ethoxymethyl)-6-hydroxy-5-{5-[(2-phenyl-1,3-thiazol-4-yl)methyl]-1,3,4-oxadiazol-2-yl}-1,4-dihydropyrimidin-4-one] is higher in EC50: 0.01 to 10 nM for the first, 10 to 100 nM for the second.

COc1cccc(OC)c1-n1c(CCC2CC2)nc(=O)c(-c2nnc(CN3CCCC3=O)o2)c1O [Example 43, 2-(2-cyclopropylethyl)-1-(2,6-dimethoxyphenyl)-6-hydroxy-5-{5-[(2-oxopyrrolidin-1-yl)methyl]-1,3,4-oxadiazol-2-yl}-1,4-dihydropyrimidin-4-one] and COc1cccc(OC)c1-n1c(CCC2CC2)nc(=O)c(-c2nnc(CN3CCOCC3=O)o2)c1O [Example 47, 4-({5-[2-(2-cyclopropylethyl)-1-(2,6-dimethoxyphenyl)-6-hydroxy-4-oxo-1,4-dihydropyrimidin-5-yl]-1,3,4-oxadiazol-2-yl}methyl)morpholin-3-one] fall in the same range of EC50: 0.01 to 10 nM for the first, 0.01 to 10 nM for the second.

COc1cccc(OC)c1-n1c(CCC2CC2)nc(=O)c(-c2nnc(Cc3csc(C)n3)o2)c1O [Example 44, 2-(2-cyclopropylethyl)-1-(2,6-dimethoxyphenyl)-6-hydroxy-5-{5-[(2-methyl-1,3-thiazol-4-yl)methyl]-1,3,4-oxadiazol-2-yl}-1,4-dihydropyrimidin-4-one] and COc1cccc(OC)c1-n1c(CCC2CC2)nc(=O)c(-c2nnc(Cn3ccccc3=O)o2)c1O [Example 46, 2-(2-cyclopropylethyl)-1-(2,6-dimethoxyphenyl)-6-hydroxy-5-{5-[(2-oxo-1,2-dihydropyridin-1-yl)methyl]-1,3,4-oxadiazol-2-yl}-1,4-dihydropyrimidin-4-one] fall in the same range of EC50: 0.01 to 10 nM for the first, 0.01 to 10 nM for the second.
